Source: patent US8288380B2, “Thiophenediamine derivative having urea structure” (Santen Pharmaceutical Co., Ltd., priority 2008, dated 2012)

Legend:
[1] = tested on: human trabecular meshwork cell line (TM-1 cells); assay: Test for evaluation of effect of morphological change on trabecular meshwork cells (cell shape index, CSI); format: cell-based; settings: final concentration 10 μM, 24 hours incubation, Control 0.694, lower CSI indicates greater morphological changes
Excerpt: Further, as a result of studying an effect morphological change of the present compound on trabecular meshwork cells, i.e., an effect of morphological change of the present compound on trabecular meshwork cells in an evaluation system using the cell shape index (hereinafter referred to as “CSI”) reported in The Journal of Clinical Investigation, 103, 1141-1150 (1999) as an index, it was found the present compound has an excellent effect of morphological change on trabecular meshwork cells.
As a method for evaluating a cellular morphological change, an evaluation system using the cell shape index (hereinafter referred to as “CSI”) as an index has been reported in The Journal of Clinical Investigation, 103, 1141-1150 (1999). Therefore, according to the method described in the above document, an effect of morphological change of the present compounds on trabecular meshwork cells was evaluated.
A human trabecular meshwork cell line (hereinafter referred to as “TM-1 cells”) reported in Investigative Ophthalmology & Visual Science, 43, 151-161 (2002) was used.
Culture medium 1: A reagent was prepared by adding fetal bovine serum (10%), L-glutamine (2 mM), amphotericin B ([…]), and gentamicin (25 μg/mL) to Dulbecco's Modified Eagle Medium (hereinafter referred to as “D-MEM”).
Culture medium 2: A reagent was prepared by adding fetal bovine serum (3%), L-glutamine (2 mM), amphotericin B (2.5 μg/mL), and gentamicin (25 μg/mL) were added to D-MEM.
Cell staining liquid: A mixed liquid of Calcein-AM (16 μM) and Hoechst 33342 (40 μM) was prepared by diluting a Calcein-AM solution (cytoplasmic staining reagent, manufactured by Dojindo Laboratories) and a Hoechst 33342 solution (nuclear staining reagent, manufactured by Dojindo Laboratories) with D-MEM containing L-glutamine (2 mM), amphotericin B (2.5 μg/mL), and gentamicin (25 μg/mL).
TM-1 cells subcultured at 37° C. in a 8% carbon dioxide gas atmosphere were treated with a trypsin/EDTA solution (0.05% trypsin and 0.53 mM tetrasodium ethylenediaminetetraacetate) at 24 hours before performing a drug treatment mentioned below and seeded on a 96-well culture plate. The culture medium 1 was used for the subculture of the cells. The culture medium 2 was used for the cell culture after seeding the cells on the plate.
A test compound was dissolved in DMSO, whereby a 5 mM solution was prepared. Then, the resulting solution was diluted with the culture medium 2, whereby a 200 μM test compound solution was prepared.
It has been reported that Y-27632 which is a Rho kinase inhibitor induces a morphological change in trabecular meshwork cells in Investigative Ophthalmology & Visual Science, 42, 137-144 (2001). Therefore, Y-27632 (produced according to the method described in WO 90/05723) was used as a positive control, and dissolved in DMSO in the same manner as the test compound, whereby a 5 mM solution was prepared, and then, the resulting solution was diluted with the culture medium 2, whereby a 200 μM positive control compound solution was prepared.
1) To a 96-well culture plate, a solution of TM-1 cells adjusted to a cell density of […] was added in an amount of 95 μL (1.5×10^4 cells) per well.
2) Incubation was performed at 37° C. in a 8% carbon dioxide gas atmosphere for 24 hours.
3) The test compound solution or positive control compound solution was added in an amount of 5 μL per well (the final concentration of the test compound or positive control compound was 10 μM). As a control, the culture medium 2 containing DMSO (4%) was added in an amount of 5 μL per well.
4) Incubation was performed at 37° C. in a 8% carbon dioxide gas atmosphere for 24 hours.
5) The cell staining liquid was added in an amount of 10 μL per well.
6) Incubation was performed at 37° C. in a 8% carbon dioxide gas atmosphere for 1 hour to stain the cells.
7) A 37% formaldehyde solution was added in an amount of 10 μL per well.
8) Incubation was performed at room temperature for 1 hour to fix the cells. […]

[2] = tested on: HDAC (HeLa nuclear extract); assay: Test for evaluation of HDAC inhibitory activity (HDAC Fluorimetric Assay/Drug Discovery Kit, Biomol); format: biochemical; settings: final concentration of the test compound 30 μM, values more than 100% shown as 100%
Method: Using HDAC Fluorimetric Assay/Drug Discovery Kit (manufactured by Biomol), HDAC inhibitory activity of the present compounds was measured according to the protocol included with the kit. The kit contains Buffer, HeLa nuclear extract (includes HDAC), Substrate, Developer and Trichostatin A HDAC inhibitor).
A test compound was dissolved in dimethyl sulfoxide (hereinafter referred to as “DMSO”), whereby a 2 mg/mL solution was prepared. Then, the resulting solution was diluted with Buffer containing 5% DMSO, whereby a 150 μM test compound solution was prepared.
1) To a 384-well culture plate, the test compound solution was added in an amount of 2 μL per well.
2) HeLa nuclear extract was diluted 30-fold with Buffer. The resulting solution was added in an amount of 3 μL per well, and then incubation was performed at 37° C. for 2 hours.
3) Substrate was diluted 500-fold with Buffer. The resulting solution was added in an amount of 5 μL per well (the final concentration of the test compound was 30 μM), and then incubation was performed at 37° C. for 10 minutes.
4) Developer was diluted 20-fold with Buffer and Trichostatin A (2 μM) was added to it. The resulting solution was added in an amount of 10 μL per well, and then incubation was performed at room temperature for 15 minutes.
5) The fluorescence intensity of each well was measured using multilabel counter ARVO (manufactured by Wallac) with excitation at 360 nm and emission at 460 nm.
6) A control data was obtained from the same experiment except that Buffer containing 5% DMSO was added instead of the test compound solution as the above-mentioned procedure from 1) to 5).
7) A blank data was obtained from the same experiment except that Buffer containing 5% DMSO was added instead of the test compound solution and that Buffer was added instead of Hela nuclear extract as the above-mentioned procedure from 1) to 5).
Enzyme inhibitory rate (%) was calculated using the following equation. (Enzyme Inhibitory Rate(%))=100×[1−{(Fluorescence Intensity of Test Compound Solution)−(Florescence Intensity of Blank)}/{(Florescence Intensity of Control)−(Florescence Intensity of Blank)}] (Test Results)

SMILES | CSI [1] | Enzyme Inhibitory Rate (%) [2]
CN(C)CCN(Cc1ccc(C(=O)Nc2cscc2N)nc1)C(=O)Nc1ccc2c(c1)OCCO2 [Compound No. 1-1, N-(4-Aminothiophen-3-yl)-5-[3-(2,3-dihydrobenzo[1,4]dioxin-6-yl)-1-(2-dimethylaminoethyl)ureidomethyl]pyridine-2-carboxylic acid amide] | 0.527 | 97%
CN(C)CCN(Cc1ccc(C(=O)Nc2cscc2N)nc1)C(=O)Nc1ccsc1 [Compound No. 1-7, N-(4-Aminothiophen-3-yl)-5-[1-(2-dimethylaminoethyl)-3-(thiophen-3-yl)ureidomethyl]pyridine-2-carboxylic acid amide] | 0.523 | 100%
CN(C)CCN(Cc1ccc(C(=O)Nc2cscc2N)nc1)C(=O)NCCc1ccccc1 [Compound No. 1-8, N-(4-Aminothiophen-3-yl)-5-[1-(2-dimethylaminoethyl)-3-phenethylureidomethyl]pyridine-2-carboxylic acid amide] | 0.548 | 96%
CN(C)CCN(Cc1ccc(C(=O)Nc2cscc2N)nc1)C(=O)Nc1ccc(F)c(F)c1 [Compound No. 1-18, N-(4-Aminothiophen-3-yl)-5-[3-(3,4-difluorophenyl)-1-(2-dimethylaminoethyl)ureidomethyl]pyridine-2-carboxylic acid amide] | 0.519 | 97%
CN(C)CCCN(Cc1ccc(C(=O)Nc2cscc2N)nc1)C(=O)Nc1ccsc1 [Compound No. 1-24, N-(4-Aminothiophen-3-yl)-5-[1-(3-dimethylaminopropyl)-3-(thiophen-3-yl)ureidomethyl]pyridine-2-carboxylic acid amide] | 0.509 | 100%
Nc1cscc1NC(=O)c1ccc(CN(CCCN2CCOCC2)C(=O)NC2CCCC2)cn1 [Compound No. 1-34, N-(4-Aminothiophen-3-yl)-5-[3-cyclopentyl-1-[3-(morpholin-4-yl)propyl]ureidomethyl]pyridine-2-carboxylic acid amide] | 0.516 | 97%
CC(C)NC(=O)N(CCCN1CCN(C)CC1)Cc1ccc(C(=O)Nc2cscc2N)nc1 [Compound No. 1-56, N-(4-Aminothiophen-3-yl)-5-[3-isopropyl-1-[3-(4-methylpiperazin-1-yl)propyl]ureidomethyl]pyridine-2-carboxylic acid amide] | 0.422 | 97%
Nc1cscc1NC(=O)c1ccc(CN(CCCCN2CCOCC2)C(=O)NCCc2ccccc2)cn1 [Compound No. 1-59, N-(4-Aminothiophen-3-yl)-5-[1-[4-(morpholin-4-yl)butyl]-3-phenethylureidomethyl]pyridine-2-carboxylic acid amide] | 0.500 | 97%
Nc1cscc1NC(=O)c1ccc(CN(CCN2CCCC2)C(=O)NC2CCCC2)cn1 [Compound No. 1-71, N-(4-Aminothiophen-3-yl)-5-[3-cyclopentyl-1-[2-(pyrrolidin-1-yl)ethyl]ureidomethyl]pyridine-2-carboxylic acid amide] | 0.481 | 100%
CN1CCN(CCN(Cc2ccc(C(=O)Nc3cscc3N)nc2)C(=O)NCCc2ccc3c(c2)OCO3)CC1 [Compound No. 1-77, N-(4-Aminothiophen-3-yl)-5-[2-[3-(benzo[1,3]dioxol-5-yl)]ethyl-1-[2-(4-methylpiperazin-1-yl)ethyl]ureidomethyl]pyridine-2-carboxylic acid amide] | 0.515 | 100%
CCOC(=O)CNC(=O)N(CCCN1CCOCC1)Cc1ccc(C(=O)Nc2cscc2N)nc1 [Compound No. 1-88, N-(4-Aminothiophen-3-yl)-5-[3-ethoxycarbonylmethyl-1-[3-(morpholin-4-yl)propyl]ureidomethyl]pyridine-2-carboxylic acid amide] | 0.539 | 95%
CN(C)CCN(Cc1ccc(C(=O)Nc2cscc2N)nc1)C(=O)Nc1nccs1 [Compound No. 1-103, N-(4-Aminothiophen-3-yl)-5-[1-(2-dimethylaminoethyl)-3-(thiazol-2-yl)ureidomethyl]pyridine-2-carboxylic acid amide] | 0.496 | 97%
CN(C)CCN(Cc1ccc(C(=O)Nc2cscc2N)nc1)C(N)=O [Compound No. 1-104, N-(4-Aminothiophen-3-yl)-5-[1-(2-dimethylaminoethyl)ureidomethyl]pyridine-2-carboxylic acid amide] | 0.505 | 97%
C[C@@H](N)[C@H]1CC[C@H](C(=O)Nc2ccncc2)CC1 [Y-27632, reference compound] | 0.627 | –
